From patent US6992079B2, “Substituted 11-phenyl-dibenzazepine compounds useful for the treatment or prevention of diseases characterized by abnormal cell proliferation” (President Fellows of Harvard College, priority 1997, dated 2006)
Like-named read-outs stand apart in the source and are kept apart here.

Columns and labels:
[1] = test system: NCI/ADR-RES; assay: In-Vitro Testing SRB panel: Breast Cancer; type: cell-based
[2] = test system: KM12; assay: In-Vitro Testing SRB panel: Colon Cancer; type: cell-based; conditions: KM12
[3] = test system: ROP-62; type: cell-based
[4] = test system: A498; assay: In-Vitro Testing SRB panel: Renal Cancer; type: cell-based; conditions: A498
[5] = test system: MDA-N; assay: In-Vitro Testing SRB panel: Breast Cancer; type: cell-based
[6] = test system: panel of human cancer cells; assay: In vitro screening, SRB, panel of 60 human cancer cell lines; type: cell-based
[7] = test system: HCT-116; assay: In-Vitro Testing SRB panel: Colon Cancer; type: cell-based; conditions: HCT-116
[8] = test system: HS 578T; assay: In-Vitro Testing SRB panel: Breast Cancer; type: cell-based
[9] = test system: SK-OV-3; assay: In-Vitro Testing SRB panel: Ovarian Cancer; type: cell-based; conditions: SK-OV-3
[10] = test system: SW-620; assay: In-Vitro Testing SRB panel: Colon Cancer; type: cell-based; conditions: SW-620
[11] = test system: SU.86.86 pancreatic adenocarcinoma; assay: Mouse xenograft tumor growth; type: in vivo, nude mice; conditions: SU.86.86 pancreatic adenocarcinoma mouse xenograft
[12] = test system: NCI-H460; type: cell-based; conditions: NCI-H460
[13] = test system: HT29; assay: In-Vitro Testing SRB panel: Colon Cancer; type: cell-based
[14] = test system: RXF 393; assay: In-Vitro Testing SRB panel: Renal Cancer; type: cell-based; conditions: RXF 393
[15] = test system: ERVX
[16] = test system: SF-295; assay: In-Vitro Testing SRB panel: CNS Cancer; type: cell-based; conditions: SF-295
[17] = test system: NIH 3T3 mouse fibroblast cells; assay: Mitogenic assay (mitogen-induced cell proliferation); type: cell-based; conditions: Mus musculus, NIH3T3, 10 μM compound
[18] = test system: OVCAR-8; assay: In-Vitro Testing SRB panel: Ovarian Cancer; type: cell-based; conditions: OVCAR-8
[19] = test system: NCI-H226; type: cell-based; conditions: NCI-H226
[20] = Homo sapiens, read-out: LC50 (the source's name)

Compound: COc1cccc2c1C(c1ccccc1Cl)c1cc(Cl)ccc1N(C(=O)c1ccc([N+](=O)[O-])cc1)C2 (centres unmarked) [Compound 31]
- TGI [1]: >1.00E−04 Molar
- GI50 ([1]; Homo sapiens): 3.88 µM
- CC50 [1, 20]: > 100 µM
- Percent Growth ([1]; log10 conc -4 Molar): 12%
- Percent Growth ([1]; log10 conc -5 Molar): 27%
- Percent Growth ([1]; log10 conc -6 Molar): 84%
- Percent Growth ([1]; log10 conc -7 Molar): 101%
- Percent Growth ([1]; log10 conc -8 Molar): 95%
- GI50 ([2]; Homo sapiens): 0.519 µM
- CC50 [2, 20]: > 100 µM
- TGI [2]: >1.00E−04 Molar
- Percent Growth ([2]; log10 conc -4 Molar): 20%
- Percent Growth ([2]; log10 conc -5 Molar): 32%
- Percent Growth ([2]; log10 conc -6 Molar): 38%
- Percent Growth ([2]; log10 conc -7 Molar): 80%
- Percent Growth ([2]; log10 conc -8 Molar): 99%
- GI50 ([3]; Homo sapiens): > 100 µM
- CC50 ([3]; Homo sapiens, ROP-62, read-out: LC50 (the source's name)): > 100 µM
- TGI ([3]; ROP-62): >1.00E−04 Molar
- Percent Growth ([3]; ROP-62, log10 conc -4 Molar): 50%
- Percent Growth ([3]; ROP-62, log10 conc -5 Molar): 79%
- Percent Growth ([3]; ROP-62, log10 conc -6 Molar): 88%
- Percent Growth ([3]; ROP-62, log10 conc -7 Molar): 105%
- Percent Growth ([3]; ROP-62, log10 conc -8 Molar): 100%
- TGI [4]: 6.86E−06 Molar
- Percent Growth ([4]; log10 conc -4 Molar): −32%
- Percent Growth ([4]; log10 conc -5 Molar): −11%
- Percent Growth ([4]; log10 conc -6 Molar): 55%
- Percent Growth ([4]; log10 conc -7 Molar): 93%
- Percent Growth ([4]; log10 conc -8 Molar): 93%
- GI50 ([4]; Homo sapiens): 1.19 µM
- CC50 [4, 20]: > 100 µM
- TGI [5]: >1.00E−04 Molar
- GI50 ([5]; Homo sapiens): 1.97 µM
- CC50 [5, 20]: > 100 µM
- Percent Growth ([5]; log10 conc -4 Molar): 22%
- Percent Growth ([5]; log10 conc -5 Molar): 33%
- Percent Growth ([5]; log10 conc -6 Molar): 57%
- Percent Growth ([5]; log10 conc -7 Molar): 90%
- Percent Growth ([5]; log10 conc -8 Molar): 96%
- activity against the human cell panel [6]: exhibited activity against the human cell panel
- TGI [7]: 1.00E−04 Molar
- Percent Growth ([7]; log10 conc -4 Molar): 12%
- Percent Growth ([7]; log10 conc -5 Molar): 17%
- Percent Growth ([7]; log10 conc -6 Molar): 32%
- Percent Growth ([7]; log10 conc -7 Molar): 92%
- Percent Growth ([7]; log10 conc -8 Molar): 100%
- GI50 ([7]; Homo sapiens): 0.502 µM
- CC50 [7, 20]: > 100 µM
- TGI ([8]; HS 578T): >1.00E−04 Molar
- Percent Growth ([8]; HS 578T, log10 conc -4 Molar): 17%
- Percent Growth ([8]; HS 578T, log10 conc -5 Molar): 31%
- Percent Growth ([8]; HS 578T, log10 conc -6 Molar): 49%
- Percent Growth ([8]; HS 578T, log10 conc -7 Molar): 74%
- Percent Growth ([8]; HS 578T, log10 conc -8 Molar): 90%
- GI50 ([8]; Homo sapiens, Hs-578T): 0.913 µM
- CC50 ([8]; Homo sapiens, HS 578T, read-out: LC50 (the source's name)): > 100 µM
- GI50 ([9]; Homo sapiens): > 100 µM
- CC50 [9, 20]: > 100 µM
- TGI [9]: >1.00E−04 Molar
- Percent Growth ([9]; log10 conc -4 Molar): 63%
- Percent Growth ([9]; log10 conc -5 Molar): 85%
- Percent Growth ([9]; log10 conc -6 Molar): 88%
- Percent Growth ([9]; log10 conc -7 Molar): 102%
- Percent Growth ([9]; log10 conc -8 Molar): 97%
- GI50 ([10]; Homo sapiens): 2 µM
- CC50 [10, 20]: > 100 µM
- TGI [10]: >1.00E−04 Molar
- Percent Growth ([10]; log10 conc -4 Molar): 27%
- Percent Growth ([10]; log10 conc -5 Molar): 34%
- Percent Growth ([10]; log10 conc -6 Molar): 57%
- Percent Growth ([10]; log10 conc -7 Molar): 94%
- Percent Growth ([10]; log10 conc -8 Molar): 105%
- tumor growth [11]: showed inhibition of tumor growth
- GI50 ([12]; Homo sapiens): 0.595 µM
- CC50 [12, 20]: > 100 µM
- TGI [12]: 2.81E−05 Molar
- Percent Growth ([12]; log10 conc -4 Molar): −16%
- Percent Growth ([12]; log10 conc -5 Molar): 10%
- Percent Growth ([12]; log10 conc -6 Molar): 36%
- Percent Growth ([12]; log10 conc -7 Molar): 99%
- Percent Growth ([12]; log10 conc -8 Molar): 96%
- TGI ([13]; HI29): >1.00E−04 Molar
- Percent Growth ([13]; HI29, log10 conc -4 Molar): 16%
- Percent Growth ([13]; HI29, log10 conc -5 Molar): 26%
- Percent Growth ([13]; HI29, log10 conc -6 Molar): 47%
- Percent Growth ([13]; HI29, log10 conc -7 Molar): 91%
- Percent Growth ([13]; HI29, log10 conc -8 Molar): 97%
- GI50 ([13]; Homo sapiens, HT-29): 0.866 µM
- CC50 ([13]; Homo sapiens, HT-29, HI29, read-out: LC50 (the source's name)): > 100 µM
- GI50 ([14]; Homo sapiens): 13.1 µM
- CC50 [14, 20]: > 100 µM
- TGI [14]: >1.00E−04 Molar
- Percent Growth ([14]; log10 conc -4 Molar): 39%
- Percent Growth ([14]; log10 conc -5 Molar): 52%
- Percent Growth ([14]; log10 conc -6 Molar): 81%
- Percent Growth ([14]; log10 conc -7 Molar): 96%
- Percent Growth ([14]; log10 conc -8 Molar): 96%
- TGI ([15]; ERVX): >1.00E−04 Molar
- Percent Growth ([15]; ERVX, log10 conc -4 Molar): 7%
- Percent Growth ([15]; ERVX, log10 conc -5 Molar): 27%
- Percent Growth ([15]; ERVX, log10 conc -6 Molar): 80%
- Percent Growth ([15]; ERVX, log10 conc -7 Molar): 103%
- Percent Growth ([15]; ERVX, log10 conc -8 Molar): 100%
- GI50 ([15]; Homo sapiens): 3.65 µM
- CC50 ([15]; Homo sapiens, read-out: LC50): > 100 µM
- GI50 ([16]; Homo sapiens): 13.5 µM
- CC50 [16, 20]: > 100 µM
- TGI [16]: >1.00E−04 Molar
- Percent Growth ([16]; log10 conc -4 Molar): 34%
- Percent Growth ([16]; log10 conc -5 Molar): 52%
- Percent Growth ([16]; log10 conc -6 Molar): 75%
- Percent Growth ([16]; log10 conc -7 Molar): 98%
- Percent Growth ([16]; log10 conc -8 Molar): 97%
- inhibition at 10 µM [17]: 99%
- GI50 ([18]; Homo sapiens): 5.3 µM
- CC50 [18, 20]: > 100 µM
- TGI [18]: >1.00E−04 Molar
- Percent Growth ([18]; log10 conc -4 Molar): 29%
- Percent Growth ([18]; log10 conc -5 Molar): 38%
- Percent Growth ([18]; log10 conc -6 Molar): 82%
- Percent Growth ([18]; log10 conc -7 Molar): 94%
- Percent Growth ([18]; log10 conc -8 Molar): 99%
- GI50 ([19]; Homo sapiens): 3.67 µM
- CC50 [19, 20]: > 100 µM
- TGI [19]: >1.00E−04 Molar
- Percent Growth ([19]; log10 conc -4 Molar): 13%
- Percent Growth ([19]; log10 conc -5 Molar): 34%
- Percent Growth ([19]; log10 conc -6 Molar): 71%
- Percent Growth ([19]; log10 conc -7 Molar): 90%
- Percent Growth ([19]; log10 conc -8 Molar): 90%
